Results reported in patent publication US5110935A, “New compounds which are active against the tissue forms of malaria and method of preparation” (Ire-Celltarg, S.A., priority 1988, dated 1992).
“And” between values parts separate entries of the source, which are not always exact repeats. Equal values may be shown once.

Key:
Plasmodium berghei [1] = experiment: Therapeutic index in mice; type: in vivo, P. berghei; conditions: mice, i.v.
Excerpt: The therapeutic index is defined as the ratio of the toxicity, expressed as LD50, to the therapeutic activity, expressed as CPD50, in mice.
^b : The therapeutic index (TI) is the ratio of LD50 to […]

[2] = Acute toxicity in mice after a single i.v. administration; type: in vivo; conditions: mouse, in vivo, iv, single i.v., mg PQ diphosphate equivalent/kg; for MTD: weight loss not exceeding 5% during 5 days, read-out: Maximum tolerated dose (MTD)
Protocol: (§1) The acute toxicity in terms of a single administered dose is determined on female Swiss OF1 mice weighing 22 to 25 g. A series of dilutions of each compound is injected intravenously into groups of 10 mice (0.1 ml per 10 g of weight).
(§2) The lethal dose for 50% of mice (LD50) is determined by linear regression of the logits of the percentage of surviving animals as a function of the logarithm of the dose injected (in mg PQ diphosphate equivalent/kg) (Logit Weighted Transformation, Berkson J., 1953; J. Am. Stat. Assoc. 48, 565-599).
(§3) ^a : The products are administered i.v. to groups of 10 female Swiss
(§4) ^b : Maximum tolerated dose (MTD), defined as the highest dose
(§5) The acute toxicity in terms of a single administered dose is determined under the same conditions and according the protocol of Example 3.

female Swiss OF1 mice = experiment: as above; type: in vivo; conditions: for Fold less toxic than PQ: mice, i.v.; for LD50 / Maximum tolerated dose (MTD): single i.v., mg PQ diphosphate equivalent/kg; for Maximum tolerated dose (MTD): weight loss not exceeding 5% during 5 days
Protocol: as §1, §2, §3, §4, §5

Plasmodium berghei [3] = experiment: Causal prophylactic activity on OF1 mice infected with Plasmodium berghei; type: in vivo, P. berghei (ANKA), in Swiss OF1 mice; conditions: for ED50 / ED100 / minimal effective dose: Plasmodium berghei, iv, 3 h; for ED50 / ED100 / minimal effective dose / CPD50, causal prophylactic dose curing 50% of the infected and treated animals / ED100, totally curative dose: single i.v. three hours after sporozoites, mg PQ diphosphate equivalent/kg; for ED50: read-out: CPD50, causal prophylactic dose curing 50% of the infected and treated animals; for ED100: read-out: ED100, totally curative dose; for minimal effective dose: read-out: Minimal effective dose (MED); for Activity relative to PQ, fold as active: model of malaria in mice; for CPD50, fold lower than for PQ: mouse, in vivo; for PQ index: ratio CPD50 of PQ/CPD50 of the compound
Protocol: Primaquine and its derivatives are tested in the model of malaria in rodents employing the infection of mice with Plasmodium berghei, the sporozoites originating from infected Anopheles stephensi mosquitoes. This model, developed by Most H., Herman R. & Schoenfeld C. (1967), Am. J. Trop. med. Hyg. 16, 572-575, enables the casual prophylatic (tissue schizonticidal) activity of new therapeutic compounds to be determined.
The procedure used is that derived from Most H. & Montuori W.A. (1975), Am. J. Trop. Med. Hyg. 24, 179-189. It involves the system P. berghei (ANKA)/Anopheles stephensi/Swiss OF1 mice. The ANKA strain of P. b. berghei is maintained cyclically on Anopheles stephensi. The Swiss OF1 strain mouse is especially sensitive to P. b. berghei, which produces an invariably fatal infection.
The legs, wings and abdomen are removed from female mosquitoes (80 to 100 individuals per preparation) and the latter are then homogenized at 4° C. in MEM medium (GIBCO) containing 10% of fetal calf serum using a glass Potter. The sporozoite suspension is then purified from the mosquito debris by two successive centrifugations (2 min at 50 g and 5 min at 200 g) and the collected supernatant is stored at 4° C. After counting in a Petroff-Hausser chamber, the number of parasites is adjusted by dilution with the same cold medium to a density of 2×10^5 sporozoites/ml.
The causal prophylactic activity of the compounds, that is to say the dose enabling 50% of the infected animals to be cured (CPD50) is obtained by analysis of the logits of the response (expressed as a % LTS) as a function of the dose (mg PQ/kg).
A volume of 0.5 ml of the suspension containing 10^5 sporozoites is injected i.v. into female Swiss OF1 mice weighing 20 to 25 g, used for the therapeutic tests. 1.2. Chemotherapeutic treatments
Groups of 20 to 25 mice, infected as described above, are treated with a single intravenous injection of primaquine diphosphate (PQ) or of its two derivatives in hydrochloride form, three hours after inoculation of the sporozoites. The volume injected is adjusted according to the weight of the mouse, on the basis of 0.25 ml for a weight of 25 g. The compounds are diluted in phosphatebuffered saline (PBS), pH 7.0, and the pH is adjusted to 7.0. Infected but untreated mice (5 per group), receive the buffer alone and serve to monitor the infectivity of the sporozoites.
The experimental mice are kept for a period of 50 days. The development of the parasitemia is followed by daily examination of blood smears stained for 60 min with 5% Giemsa in Sorensen buffer at pH 7.2, from day 5 up to day 15. The number of infected animals can thus be determined.
(§6) The animals infected using P. berchei sporozoites are treated three hours later with a single i.v. injection of the compounds. This test enables the casual prophylactic activity of the compounds, that is the dose enabling 50% of the infected animals to be cured (CPD50), to be defined. The dose is always expressed as mg of PQ diphosphate per kg.
as §6, with “berghei” for “berchei”

Row | SMILES | Therapeutic index, fold higher than that of PQ (Plasmodium berghei [1]) | LD50 [2] [mg/kg] | MTD [2] [mg/kg] | Fold less toxic than PQ (female Swiss OF1 mice) | LD50 (female Swiss OF1 mice) | Maximum tolerated dose (MTD) (female Swiss OF1 mice) | ED50 (Plasmodium berghei [3]) [mg/kg] | ED100 (Plasmodium berghei [3]) [mg/kg] | minimal effective dose (Plasmodium berghei [3]) [mg/kg] | Activity relative to PQ, fold as active (Plasmodium berghei [3]) | CPD50, fold lower than for PQ (Plasmodium berghei [3]) | PQ index (Plasmodium berghei [3]) | CPD50, causal prophylactic dose curing 50% of the infected and treated animals (Plasmodium berghei [3]) | ED100, totally curative dose (Plasmodium berghei [3])
1 | COc1cc(NC(C)CCCNC(=O)[C@@H](N)CC(=O)O)c2ncccc2c1 (stereo partly drawn) [ASP-PQ, N-(α-L-aspartyl)-PQ] | at least 8 -fold | 165 | 107 | at least 5 -fold | 165.5 (5.4) mg/kg and 165 (5.4) mg/kg | 107.2 (14.2) mg/kg | 11.6 | 31 | 4.4 | 1.6 -fold | 1.6 -fold | 1.62 | 11.6 (0.9) mg/kg | 31.1 (9.2) mg/kg
2 | COc1cc(NC(C)CCCNC(=O)C[C@H](N)C(=O)O)c2ncccc2c1 (stereo partly drawn) [βASP-PQ, N-(β-L-aspartyl)-PQ] | 8 -fold | 164 | 109 | at least 5 -fold | 164.4 (6.2) mg/kg and 164 (6.2) mg/kg | 109.1 (13.1) mg/kg | 11.2 | 31 | 4.1 | at least 1.6 -fold | 1.6 -fold | 1.68 | 11.2 (0.7) mg/kg | 30.6 (5.7) mg/kg
